Reference: PubChem BioAssay (NCI)
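Where inhibition never reached the appropriate level, the endpoint shown equals the highest concentration tested. Otherwise, values were interpolated linearly from a five-concentration, 48-hour dose response in 96-well plates. GI50 marks 50% less growth. The concentration for full growth arrest is given as TGI.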

Assays:
Experiment in all cases: growth of human tumour cells (NCI), 48 h
SK-OV-3 ovarian = tested on: SK-OV-3 ovarian
CCRF-CEM leukemia = tested on: CCRF-CEM leukemia
SK-MEL-2 melanoma = tested on: SK-MEL-2 melanoma
HCC-2998 colon = tested on: HCC-2998 colon
SW-620 colon = tested on: SW-620 colon
EKVX NSCLC = tested on: EKVX NSCLC
LOX IMVI melanoma = tested on: LOX IMVI melanoma
NCI-H522 lung = tested on: NCI-H522 lung
UO-31 renal = tested on: UO-31 renal
RPMI-8226 leukemia = tested on: RPMI-8226 leukemia
UACC-257 melanoma = tested on: UACC-257 melanoma
A498 renal = tested on: A498 renal
MDA-MB-231 breast = tested on: MDA-MB-231 breast
MCF7 breast = tested on: MCF7 breast
T-47D breast = tested on: T-47D breast

CC(C)(C)[C@H]1CO[C@]2(C)[C@@H]3C[C@@H]3C(=O)N12
TGI (SK-OV-3 ovarian): > 100 µM | TGI (CCRF-CEM leukemia): > 100 µM | TGI (SK-MEL-2 melanoma): > 100 µM | TGI (HCC-2998 colon): > 100 µM | TGI (SW-620 colon): > 100 µM | TGI (EKVX NSCLC): > 100 µM | TGI (LOX IMVI melanoma): > 100 µM | TGI (NCI-H522 lung): > 100 µM | TGI (UO-31 renal): > 100 µM | TGI (RPMI-8226 leukemia): > 100 µM | TGI (UACC-257 melanoma): > 100 µM

CCOC(=O)CC[C@@H](NC(=O)c1ccc(N[C@@H]2c3cc4c(cc3C(c3cc(OC)c(O)c(OC)c3)C3C(=O)OC[C@@H]32)OCO4)cc1)C(=O)OCC (some centres not stated)
TGI (SK-OV-3 ovarian): 0.0656 µM | TGI (A498 renal): 0.0668 µM | TGI (CCRF-CEM leukemia): > 10 µM | TGI (SK-MEL-2 melanoma): 0.235 µM | TGI (HCC-2998 colon): 0.318 µM | TGI (EKVX NSCLC): 0.0799 µM | TGI (UO-31 renal): 0.194 µM | TGI (RPMI-8226 leukemia): > 10 µM | TGI (UACC-257 melanoma): 0.724 µM

COC(=O)CC1C(=O)OCc2c1cc1n(c2=O)Cc2c-1nc1ccccc1c2OC (configuration not stated)
TGI (SK-OV-3 ovarian): > 100 µM | TGI (A498 renal): > 100 µM | TGI (CCRF-CEM leukemia): > 100 µM | TGI (SK-MEL-2 melanoma): > 100 µM | TGI (HCC-2998 colon): > 100 µM | TGI (SW-620 colon): > 100 µM | TGI (EKVX NSCLC): > 100 µM | TGI (LOX IMVI melanoma): > 100 µM | TGI (NCI-H522 lung): > 100 µM | TGI (UO-31 renal): > 100 µM | TGI (RPMI-8226 leukemia): > 100 µM | TGI (UACC-257 melanoma): > 100 µM

CCC1(N=[N+]=[N-])C(=O)Nc2cc(C)ccc2C1=O (configuration not stated)
TGI (SK-OV-3 ovarian): > 100 µM | TGI (A498 renal): > 100 µM | TGI (CCRF-CEM leukemia): > 100 µM | TGI (SK-MEL-2 melanoma): > 100 µM | TGI (HCC-2998 colon): > 100 µM | TGI (SW-620 colon): > 100 µM | TGI (EKVX NSCLC): > 100 µM | TGI (LOX IMVI melanoma): > 100 µM | TGI (NCI-H522 lung): 15.6 µM | TGI (UO-31 renal): > 100 µM | TGI (UACC-257 melanoma): > 100 µM

[N-]=[N+]=NC1C(Br)C(=O)NC(=O)N1[C@H]1C[C@H](O)[C@@H](CO)O1 (some centres not stated)
TGI (SK-OV-3 ovarian): > 100 µM | TGI (A498 renal): > 100 µM | GI50 (CCRF-CEM leukemia): 38 µM | TGI (CCRF-CEM leukemia): > 100 µM | TGI (SK-MEL-2 melanoma): > 100 µM | TGI (HCC-2998 colon): > 100 µM | TGI (SW-620 colon): > 100 µM | TGI (EKVX NSCLC): > 100 µM | TGI (LOX IMVI melanoma): > 100 µM | TGI (NCI-H522 lung): > 100 µM | TGI (UO-31 renal): > 100 µM | GI50 (RPMI-8226 leukemia): 19.6 µM | TGI (RPMI-8226 leukemia): > 100 µM | TGI (UACC-257 melanoma): > 100 µM

Cc1cc2oc(=O)[nH]c(=S)c2c(C)c1C
TGI (SK-OV-3 ovarian): > 100 µM | TGI (A498 renal): > 100 µM | TGI (CCRF-CEM leukemia): > 100 µM | TGI (SK-MEL-2 melanoma): > 100 µM | TGI (HCC-2998 colon): > 100 µM | TGI (SW-620 colon): > 100 µM | TGI (EKVX NSCLC): > 100 µM | TGI (LOX IMVI melanoma): > 100 µM | TGI (NCI-H522 lung): > 100 µM | TGI (UO-31 renal): > 100 µM | TGI (RPMI-8226 leukemia): > 100 µM | TGI (UACC-257 melanoma): > 100 µM

COC[n+]1cc2cc(OC)c(OC)cc2c2ccc3cc(OC)c(OC)cc3c21
TGI (CCRF-CEM leukemia): > 100 µM | TGI (SK-MEL-2 melanoma): > 100 µM | TGI (HCC-2998 colon): > 100 µM | TGI (SW-620 colon): > 100 µM | TGI (EKVX NSCLC): > 100 µM | TGI (LOX IMVI melanoma): > 100 µM | TGI (NCI-H522 lung): > 100 µM | TGI (UO-31 renal): > 100 µM | TGI (RPMI-8226 leukemia): > 100 µM | TGI (UACC-257 melanoma): > 100 µM

COc1cc2[nH]c(-c3cccc(N(C)C)c3)cc(=O)c2cc1OC
TGI (SK-OV-3 ovarian): > 100 µM | TGI (A498 renal): > 100 µM | TGI (CCRF-CEM leukemia): > 100 µM | TGI (HCC-2998 colon): 7.5 µM | TGI (SW-620 colon): > 100 µM | TGI (EKVX NSCLC): > 100 µM | TGI (LOX IMVI melanoma): > 100 µM | TGI (NCI-H522 lung): 17.6 µM | TGI (UO-31 renal): > 100 µM | TGI (RPMI-8226 leukemia): > 100 µM | TGI (UACC-257 melanoma): > 100 µM

COC(=O)C1(O)c2ccccc2N=C2C(=O)c3ccccc3N21 (configuration not stated)
TGI (A498 renal): > 100 µM | TGI (CCRF-CEM leukemia): > 100 µM | TGI (SK-MEL-2 melanoma): > 100 µM | TGI (HCC-2998 colon): > 100 µM | TGI (SW-620 colon): > 100 µM | TGI (MDA-MB-231 breast): > 100 µM | TGI (MCF7 breast): > 100 µM | TGI (EKVX NSCLC): > 100 µM | TGI (LOX IMVI melanoma): > 100 µM | TGI (NCI-H522 lung): > 100 µM | TGI (UO-31 renal): > 100 µM | TGI (RPMI-8226 leukemia): > 100 µM | TGI (UACC-257 melanoma): > 100 µM

O=C1CCC2SC1CCC2=O
TGI (SK-OV-3 ovarian): > 100 µM | TGI (A498 renal): > 100 µM | TGI (CCRF-CEM leukemia): > 100 µM | TGI (SK-MEL-2 melanoma): > 100 µM | TGI (HCC-2998 colon): > 100 µM | TGI (SW-620 colon): > 100 µM | TGI (MDA-MB-231 breast): > 100 µM | TGI (MCF7 breast): > 100 µM | TGI (EKVX NSCLC): > 100 µM | TGI (LOX IMVI melanoma): > 100 µM | TGI (NCI-H522 lung): > 100 µM | TGI (UO-31 renal): > 100 µM | TGI (UACC-257 melanoma): > 100 µM

c1ccc2sc(C3(N4CCCCC4)CCCC3)cc2c1
TGI (SK-OV-3 ovarian): 31.4 µM | TGI (A498 renal): 25.7 µM | TGI (CCRF-CEM leukemia): 17.7 µM | TGI (HCC-2998 colon): 13.5 µM | TGI (SW-620 colon): 24.1 µM | TGI (MCF7 breast): 21.5 µM | TGI (EKVX NSCLC): 22 µM | TGI (LOX IMVI melanoma): 32.7 µM | TGI (NCI-H522 lung): 24.8 µM | TGI (UO-31 renal): 33.8 µM | TGI (RPMI-8226 leukemia): 10.4 µM | TGI (UACC-257 melanoma): 29.7 µM

O=c1cc(-c2cccc(OC(F)(F)F)c2)[nH]c2cc3c(cc12)OCO3
TGI (A498 renal): 7.75 µM | TGI (SK-MEL-2 melanoma): 0.628 µM | TGI (HCC-2998 colon): 0.157 µM | TGI (SW-620 colon): > 100 µM | TGI (T-47D breast): > 100 µM | TGI (MCF7 breast): > 100 µM | TGI (EKVX NSCLC): > 100 µM | TGI (NCI-H522 lung): > 100 µM | TGI (RPMI-8226 leukemia): 0.271 µM | TGI (UACC-257 melanoma): > 100 µM

CCN(CC)Cc1cc(Nc2c3ccccc3nc3c2[nH]c2ccccc23)ccc1O
TGI (SK-OV-3 ovarian): 6.83 µM | TGI (A498 renal): 2.97 µM | TGI (SK-MEL-2 melanoma): 2.75 µM | TGI (SW-620 colon): 3.43 µM | TGI (EKVX NSCLC): 6.32 µM | TGI (LOX IMVI melanoma): 2.57 µM | TGI (NCI-H522 lung): 2.33 µM | TGI (UO-31 renal): 3.56 µM | TGI (RPMI-8226 leukemia): 5.83 µM | TGI (UACC-257 melanoma): 4.45 µM

COC(=O)c1c(C(=O)OC)c2cc(C(=O)c3ccccc3)ccn2c1Cl
TGI (CCRF-CEM leukemia): 78 µM | TGI (SK-MEL-2 melanoma): > 100 µM | TGI (HCC-2998 colon): > 100 µM | TGI (SW-620 colon): > 100 µM | TGI (EKVX NSCLC): > 100 µM | TGI (LOX IMVI melanoma): > 100 µM | TGI (NCI-H522 lung): 50.8 µM | TGI (UO-31 renal): 89.8 µM | TGI (RPMI-8226 leukemia): 51.7 µM
